Some results are limits rather than exact numbers.

In US20260256925A1, “INDAZOLE DERIVATIVES AS ESTROGEN RECEPTOR DEGRADERS” (REGENTS OF THE UNIVERSITY OF MICHIGAN, priority 2022, published 2026) one finds DC50 and IC50 data, which are given here for 10 molecules.

For assay [1], the target named is T1, ER (Homo sapiens, UniProt P03372).
T1 construct: endogenous in cells; probably T47D or MCF-7
T1 sequence (P03372 1-595): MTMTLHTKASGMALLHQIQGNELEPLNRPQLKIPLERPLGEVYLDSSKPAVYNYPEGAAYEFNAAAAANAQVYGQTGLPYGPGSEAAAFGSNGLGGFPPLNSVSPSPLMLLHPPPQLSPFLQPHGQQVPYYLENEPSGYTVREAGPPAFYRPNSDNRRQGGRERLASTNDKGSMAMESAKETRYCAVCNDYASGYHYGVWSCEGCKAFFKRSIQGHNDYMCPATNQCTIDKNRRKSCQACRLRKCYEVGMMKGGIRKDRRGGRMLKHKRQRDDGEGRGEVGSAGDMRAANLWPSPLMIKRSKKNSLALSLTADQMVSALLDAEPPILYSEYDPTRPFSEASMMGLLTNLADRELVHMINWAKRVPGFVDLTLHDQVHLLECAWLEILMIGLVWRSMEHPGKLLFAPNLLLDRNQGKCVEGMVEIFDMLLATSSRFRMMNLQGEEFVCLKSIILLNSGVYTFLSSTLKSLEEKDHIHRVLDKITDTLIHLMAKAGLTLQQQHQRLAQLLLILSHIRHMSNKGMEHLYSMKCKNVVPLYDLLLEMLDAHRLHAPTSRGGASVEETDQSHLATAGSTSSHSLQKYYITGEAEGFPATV
In words: In-cell western blot analysis, relative ER percentage (compounds B1-B126). The format is cell-based. The note with it: ER degradation, 16 hours, read-out: ICW DC50. How it is done:
In-cell western blot analysis. Cells are seeded in multi-well plates (e.g., at 40,000 or 10,000 cells/well). Diluted compounds at certain concentration are added (final 0.5% DMSO) and cells are incubated for a certain period of time (e.g., 16 hours). Formaldehyde (e.g., PBS: FA=9:1) is added and followed by washing with PBS. The cells are blocked with Licor blocking buffer (Li-Cor). The relative ER percentage in treated cells are obtained by comparing the values of treated wells to those in untreated and DMSO-treated wells as 100%.
In-cell western blot analysis. a. seed cells in black-sided/clear bottom 96- or 384-well plates at 40,000 or 10,000 cells/well, overnight; b. add diluted compounds (final 0.5% DMSO), 16 hours. […] RT 2h, gentle shaking. Negative control: cells plus secondary antibodies (no primary antibodies); e. wash×4 with PBS +0.05-0.1% Tween 20, gentel shaking; f. anti-rabbit-680 and anti-mouse-800 (both 1:1000 in LiCor block+0.05% Tween20, RT 1h, gentle shaking, no light. LI-COR: 0.2% to reduce background; g. wash×4 with PBS+0.05% Tween 20, gental shaking; h. add 100 μL or 25 μL of PBS to each well and read on CLX plate reader. The relative ER percentage in treated cells were obtained by comparing the values of treated wells to those in untreated and DMSO-treated wells as 100%.

Assay [2] in a line: Cell growth assay, WST-8 (compounds B1-B126). The format is cell-based. The note with it: 96 h; T47D cell line, WST-8, 4 days; read-out: Cell growth inhibition in T47D cell line IC50. How it is done:
Cell Growth Assay. The cells are seeded at certain concentration (e.g., at 1500/well) in multi-well plates overnight. Cells are subsequently treated with the compounds. A certain period of time (e.g., 4 days) after the compound treatment, 10% WST-8 reagent is added to the culture medium and incubate under certain condiction (e.g., in a CO2 incubator at 37° C. for 2.5 hours). The absorbance is measured on each sample using a microplate reader at certain wavelength (e.g., 450 nm). The relative absorbance is calculated against the vehicle control from three individually repeats.
Cell Growth Assay. The cells were seeded at 1500/well in 96 well plates overnight. One day after the seeding, they were treated with indicated doses of compounds respectively. 4 days after the compound treatment, 10% WST-8 reagent was added to the culture medium and incubate in a CO2 incubator at 37° C. for 2.5 hours. Before reading, the plate was mixed gently on an orbital shaker for one minute to ensure homogeneous distribution of color. The absorbance was measured of each sample using a microplate reader at a wavelength of 450 nm. The relative absorbance was calculated against the vehicle control from three individually repeats.
Background: Formazan colour is commonly taken as a measure of viable cells.

In the case of `COc1cc(N2CCC3(CC2)CC(CN2CCN4c5ccc6c(c5OC[C@H]4C2)CN(C2CCC(=O)NC2=O)C6=O)CO3)ccc1[C@@H]1c2ccc3[nH]ncc3c2C[C@@H](C)N1CC(F)F` (stereo partly drawn) [Compound B80, 3-((5aR)-7-((8-(4-((6S,8R)-7-(2,2-difluoroethyl)-8-methyl-6,7,8,9-tetrahydro-3H-pyrazolo[4,3-f]isoquinolin-6-yl)-3-mcthoxyphenyl)-1-oxa-8-azaspiro[4.5]decan-3-yl)methyl)-1-oxo-1,3,5,5a,6,7,8,9-octahydro-2H-pyrazino[1′,2′:4,5][1,4]oxazino[2,3-e]isoindol-2-yl)piperidine-2,6-dione], the DC50 in assay [1] was under 10 nM. In assay [2], the IC50 is under 1 nM.

`C[C@@H]1Cc2c(ccc3[nH]ncc23)[C@@H](c2ccc(N3CCC4(CCN(C(=O)CN5Cc6cc7c(cc6C5)C(=O)N(C5CCC(=O)NC5=O)C7=O)CC4)CC3)cn2)N1CC(F)F` (stereo partly drawn) [Compound B49, 6-(2-(9-(6-((6S,8R)-7-(2,2-difluoroethyl)-8-methyl-6,7,8,9-tetrahydro-3H-pyrazolo[4,3-f]isoquinolin-6-yl)pyridin-3-yl)-3,9-diazaspiro[5.5]undecan-3-yl)-2-oxoethyl)-2-(2,6-dioxopiperidin-3-yl)-6,7-dihydropyrrolo[3,4-f]isoindole-1,3(2H,5H)-dione]: the DC50 in assay [1] fell in the range of 10 to 100 nM. Moreover, the IC50 in assay [2] is over 10 nM. Consider `C[C@@H]1Cc2c(ccc3[nH]ncc23)[C@@H](c2c(F)cc(N3CCC4(CC3)CN(CC(=O)N3CCN5c6cc7c(cc6OC[C@@H]5C3)C(=O)N(C3CCC(=O)NC3=O)C7)C4)cc2F)N1CC(F)F` (stereo partly drawn) [Compound B21, 3-((S)-3-(2-(7-(4-((6S,8R)-7-(2,2-difluoroethyl)-8-methyl-6,7,8,9-tetrahydro-3H-pyrazolo[4,3-f]isoquinolin-6-yl)-3,5-difluorophenyl)-2,7-diazaspiro[3.5]nonan-2-yl)acetyl)-8-oxo-1,2,3,4,4a,5,8,10-octahydro-9H-pyrazino[1′,2′: 4,5][1,4]oxazino[2,3-f]isoindol-9-yl)piperidine-2,6-dione], for which the DC50 in assay [1] is under 10 nM. In assay [2], the IC50 was under 1 nM. The matching figures for `C[C@@H]1Cc2c(ccc3[nH]ncc23)[C@@H](c2c(F)cc(NC3CN(CC(=O)N4CCN5c6ccc7c(c6OC[C@H]5C4)CN(C4CCC(=O)NC4=O)C7=O)C3)cc2F)N1CC(F)F` (stereo partly drawn) [Compound B101, 3-((R)-7-(2-(3-((4-((6S,8R)-7-(2,2-difluoroethyl)-8-methyl-6,7,8,9-tetrahydro-3H-pyrazolo[4,3-f]isoquinolin-6-yl)-3,5-difluorophenyl)amino)azctidin-1-yl)acetyl)-1-oxo-1,3,5,5a,6,7,8,9-octahydro-2H-pyrazino[1′,2′:4,5][1,4]oxazino[2,3-e]isoindol-2-yl)piperidine-2,6-dione]: under 10 nM and 1 to 10 nM. For the molecule `C[C@@H]1Cc2c(ccc3[nH]ncc23)[C@@H](c2c(F)cc(N3CCC(CN4CCN5c6cc7c(cc6N(C)C[C@@H]5C4)C(=O)N(C4CCC(=O)NC4=O)C7)CC3)cc2F)N1CC(F)F` (stereo partly drawn) [Compound B29, 3-((S)-3-((1-(4-((6S,8R)-7-(2,2-difluoroethyl)-8-methyl-6,7,8,9-tetrahydro-3H-pyrazolo[4,3-f]isoquinolin-6-yl)-3,5-difluorophenyl)piperidin-4-yl)methyl)-6-methyl-8-oxo-2,3,4,4a,5,6,8,10-octahydropyrazino[1,2-a]pyrrolo[3,4-g]quinoxalin-9(1H)-yl)piperidine-2,6-dione], the 50% degradation concentration (DC50) in assay [1] is under 10 nM. The half-maximal inhibitory concentration (IC50) in assay [2] is under 1 nM. With `COc1cc(N2CCC3(CCN(C(=O)CN4Cc5cc6c(cc5C4)C(=O)N(C4CCC(=O)NC4=O)C6)CC3)CC2)ccc1[C@@H]1c2ccc3[nH]ncc3c2C[C@@H](C)N1CC(F)F` (stereo partly drawn) [Compound B69, 3-(6-(2-(9-(4-((6S,8R)-7-(2,2-difluoroethyl)-8-methyl-6,7,8,9-tetrahydro-3H-pyrazolo[4,3-f]isoquinolin-6-yl)-3-methoxyphenyl)-3,9-diazaspiro[5.5]undecan-3-yl)-2-oxoethyl)-1-oxo-3,5,6,7-tetrahydropyrrolo[3,4-f]isoindol-2(1H)-yl)piperidine-2,6-dione], the half-maximal degradation concentration (DC50) in assay [1] is under 10 nM. Besides, the IC50 in assay [2] is under 1 nM.

For the molecule `C[C@@H]1Cc2c(ccc3[nH]ncc23)[C@@H](c2ccc(N3CCC4(CC3)CC(CN3CCC5(CC3)COc3c5ccc5c3CN(C3CCC(=O)NC3=O)C5=O)C4)cn2)N1CC(F)(F)F` (stereo partly drawn) [Compound B60, 3-(1′-((7-(6-((6S,8R)-8-methyl-7-(2,2,2-trifluoroethyl)-6,7,8,9-tetrahydro-3H-pyrazolo[4,3-f]isoquinolin-6-yl)pyridin-3-yl)-7-azaspiro[3.5]nonan-2-yl)methyl)-6-oxo-6,8-dihydro-2H,7H-spiro[furo[2,3-e]isoindole-3,4′-piperidin]-7-yl)piperidine-2,6-dione], the DC50 in assay [1] was under 10 nM. In addition, the IC50 in assay [2] is under 1 nM. Regarding `C[C@H]1Cc2c(ccc3[nH]ncc23)[C@H](c2ccc(NC3CN(CC(=O)N4CCN5c6cc7c(cc6OC[C@@H]5C4)C(=O)N(C4CCC(=O)NC4=O)C7)C3)cn2)N1CC(F)(F)F` (stereo partly drawn) [Compound B43, 3-((S)-3-(2-(3-((6-((6R,8S)-8-methyl-7-(2,2,2-trifluoroethyl)-6,7,8,9-tetrahydro-3H-pyrazolo[4,3-f]isoquinolin-6-yl)pyridin-3-yl)amino)azetidin-1-yl)acetyl)-8-oxo-1,2,3,4,4a,5,8,10-octahydro-9H-pyrazino[1′,2′:4,5][1,4]oxazino[2,3-f]isoindol-9-yl)piperidine-2,6-dione], the DC50 in assay [1] fell in the range of 10 to 100 nM. Moreover, the IC50 in assay [2] lay within 1 to 10 nM. In the same order, the values of `C[C@@H]1Cc2c(ccc3[nH]ncc23)[C@@H](c2c(F)cc(NC3CC4(C3)CN(CC(=O)N3CCN5c6cc7c(cc6OC[C@@H]5C3)C(=O)N(C3CCC(=O)NC3=O)C7)C4)cc2F)N1CC(F)F` (stereo partly drawn) [Compound B42, 3-((S)-3-(2-(6-((4-((6S,8R)-7-(2,2-difluoroethyl)-8-methyl-6,7,8,9-tetrahydro-3H-pyrazolo[4,3-f]isoquinolin-6-yl)-3,5-difluorophenyl)amino)-2-azaspiro[3.3]heptan-2-yl)acetyl)-8-oxo-1,2,3,4,4a,5,8,10-octahydro-9H-pyrazino[1′,2′:4,5][1,4]oxazino[2,3-f]isoindol-9-yl)piperidine-2,6-dione] are under 10 nM and under 1 nM. With `COc1c2c(cc3c1CN(C1CCC(=O)NC1=O)C3=O)CN(CC(=O)N1CCC3(CC1)CCN(c1ccc([C@@H]4c5ccc6[nH]ncc6c5C[C@@H](C)N4CC(F)(F)F)nc1)CC3)C2` (stereo partly drawn) [Compound B75, 3-(4-methoxy-6-(2-(9-(6-((6S,8R)-8-methyl-7-(2,2,2-trifluoroethyl)-6,7,8,9-tetrahydro-3H-pyrazolo[4,3-f]isoquinolin-6-yl)pyridin-3-yl)-3,9-diazaspiro[5.5]undecan-3-yl)-2-oxoethyl)-1-oxo-3,5,6,7-tetrahydropyrrolo[3,4-f]isoindol-2(1H)-yl)piperidine-2,6-dione], the IC50 in assay [2] is under 1 nM.

Usually DC50 stands for the midpoint of the concentration-degradation curve. By IC50 is commonly meant the concentration needed to halve the response being measured.
